Experimental data published in PubChem BioAssay AID1259408 (Genetic Toxicology Data Bank (GENE-TOX), 2018).
Calls of active or inactive are those of the source. How the calls were made is not given here.

System: GENE-TOX genotoxicity assays, various organisms and cells
Assay: GENE-TOX mutagenicity studies
Details: for call: Assay Type: In vivo carcinogenicity studies
[1] = Species/Cell Type: Human lymphocytes, Assay Type: Sister-chromatid exchange (SCE) in vitro, Assay Code: SCL+D, Dose Response: With dose response, Evaluation Type: Evaluation B (Post-1980)
[2] = Species/Cell Type: Human, Assay Type: Sister-chromatid exchange (SCE) in vitro, Assay Code: SC1+D, Dose Response: With dose response, Evaluation Type: Evaluation B (Post-1980)
[3] = Species/Cell Type: Allium cepa, Assay Type: Chromosome aberrations, Assay Code: ALC-, Evaluation Type: Evaluation A (Pre-1980)
[4] = Species/Cell Type: Nonhuman, Assay Type: Sister-chromatid exchange (SCE) in vitro, Assay Code: SC2+D, Dose Response: With dose response, Evaluation Type: Evaluation B (Post-1980)
[5] = Species/Cell Type: Salmonella typhimurium (one or more of the five standard strains: TA98, TA100, TA1535, TA1537, and TA1538), Assay Type: Histidine reverse gene mutation, Ames assay, Assay Code: SAL+, Evaluation Type: Evaluation A (Pre-1980)
[6] = Species/Cell Type: Salmonella typhimurium (one or more of the five standard strains: TA98, TA100, TA1535, TA1537, and TA1538), Assay Type: Histidine reverse gene mutation, Ames assay, Assay Code: SALT, Evaluation Type: Evaluation A (Pre-1980)
[7] = Species/Cell Type: Saccharomyces cerevisiae, Assay Type: Mitotic recombination or gene conversion, Assay Code: YEC-, Evaluation Type: Evaluation A (Pre-1980)
[8] = Species/Cell Type: Drosophila melanogaster, Assay Type: Sex-linked recessive lethal gene mutation, Assay Code: SRLT, Evaluation Type: Evaluation A (Pre-1980)
[9] = Species/Cell Type: Salmonella typhimurium (one or more of the five standard strains: TA98, TA100, TA1535, TA1537, and TA1538), Assay Type: Histidine reverse gene mutation, Ames assay, Assay Code: SAL+*, Activation: With metabolic activation, Evaluation Type: Evaluation A (Pre-1980)
[10] = Species/Cell Type: Drosophila melanogaster, Assay Type: Sex-linked recessive lethal gene mutation, Assay Code: SRL+, Evaluation Type: Evaluation A (Pre-1980)
[11] = Species/Cell Type: Allium cepa, Assay Type: Chromosome aberrations, Assay Code: ALC+, Evaluation Type: Evaluation A (Pre-1980)
[12] = Species/Cell Type: Fischer rat embryo (RLV/1706) cells, Assay Type: Cell transformation, viral enhanced, Assay Code: CTR+, Evaluation Type: Evaluation A (Pre-1980)
[13] = Species/Cell Type: Mammalian polychromatic erythrocytes, Assay Type: Micronucleus test, chromosome aberrations, Assay Code: MNTT, Evaluation Type: Evaluation A (Pre-1980)
[14] = Species/Cell Type: Mouse, Sex: Male, Assay Type: Sperm morphology, Assay Code: SPI-, Evaluation Type: Evaluation A (Pre-1980)
[15] = Species/Cell Type: Neurospora crassa, Assay Type: Aneuploidy, chromosome aberrations, Assay Code: NEN-, Evaluation Type: Evaluation A (Pre-1980)
[16] = Species/Cell Type: Escherichia coli polA (W3110 vs P3478), Assay Type: Rec-assay, DNA effects (bacterial DNA repair), Assay Code: RE2-, Evaluation Type: Evaluation A (Pre-1980)
[17] = Species/Cell Type: Human diploid fibroblasts, Assay Type: Unscheduled DNA synthesis (UDS) in vitro, DNA effects, Assay Code: UDH-, Evaluation Type: Evaluation A (Pre-1980)
[18] = Species/Cell Type: Saccharomyces cerevisiae, Assay Type: Mitotic recombination or gene conversion, Assay Code: YEH-, Evaluation Type: Evaluation A (Pre-1980)
[19] = Species/Cell Type: Salmonella typhimurium (one or more of the five standard strains: TA98, TA100, TA1535, TA1537, and TA1538), Assay Type: Histidine reverse gene mutation, Ames assay, Assay Code: SAL-, Evaluation Type: Evaluation A (Pre-1980)

O=c1[nH]c(=O)n([C@H]2C[C@H](O)[C@@H](CO)O2)cc1CO
mutagenic call [1]: active; positive
mutagenic call [2]: active; positive

NC(=O)N/N=C/c1ccco1
mutagenic call (Species/Cell Type: Escherichia coli WP2 UVRA, Assay Type: Tryptophan reverse gene mutation, Assay Code: WPU-, Evaluation Type: Evaluation A (Pre-1980)): inactive; negative

Cc1cc(O)cc(O)c1
mutagenic call [3]: inactive; negative

CCCCCCCCC1CC1CCCCCCCC(=O)OCCOCCOC (stereo not drawn)
mutagenic call (Species/Cell Type: Nonhuman, Assay Type: Sister-chromatid exchange (SCE) in vitro, Assay Code: SC2T, Evaluation Type: Evaluation B (Post-1980)): no conclusion

N/C(=N\O)c1ccc([N+](=O)[O-])o1
mutagenic call [4]: active; positive
mutagenic call [5]: active; positive

Oc1ccc2ccccc2c1N=Nc1cc[c]([Hg+])cc1
mutagenic call [6]: no conclusion

O=c1[nH]c2c(c(=O)n1C1CCCCC1)CCC2 (tested in a mixture with another compound)
mutagenic call [7]: inactive; negative

Nc1ccc(-c2nc(N3CCOCC3)c3ccccc3n2)s1
mutagenic call [6]: no conclusion

O=c1nc(NO)ccn1[C@@H]1O[C@H](CO)[C@@H](O)[C@H]1O
mutagenic call (Species/Cell Type: Escherichia coli WP2, Assay Type: Tryptophan reverse gene mutation, Assay Code: WP2+D, Dose Response: With dose response, Evaluation Type: Evaluation A (Pre-1980)): active; positive
mutagenic call (Species/Cell Type: Escherichia coli WP2 UVRA, Assay Type: Tryptophan reverse gene mutation, Assay Code: WPU+D, Dose Response: With dose response, Evaluation Type: Evaluation A (Pre-1980)): active; positive

C/C=C/c1ccc(O)c(OC)c1
mutagenic call (Species/Cell Type: Human lymphocytes, Assay Type: Sister-chromatid exchange (SCE) in vitro, Assay Code: SCL+, Evaluation Type: Evaluation B (Post-1980)): active; positive

Nc1cccc2cccnc12
mutagenic call [8]: no conclusion
mutagenic call (Species/Cell Type: Saccharomyces cerevisiae, Assay Type: Forward gene mutation, Assay Code: YEF-*, Activation: With metabolic activation, Evaluation Type: Evaluation A (Pre-1980)): inactive; negative
mutagenic call (Species/Cell Type: Saccharomyces cerevisiae, Assay Type: Mitotic recombination or gene conversion, Assay Code: YEC-*, Activation: With metabolic activation, Evaluation Type: Evaluation A (Pre-1980)): inactive; negative
mutagenic call (Species/Cell Type: Saccharomyces cerevisiae, Assay Type: Mitotic recombination or gene conversion, Assay Code: YEH-*, Activation: With metabolic activation, Evaluation Type: Evaluation A (Pre-1980)): inactive; negative
mutagenic call (Species/Cell Type: Saccharomyces cerevisiae, Assay Type: Reverse gene mutation, Assay Code: YER+, Evaluation Type: Evaluation A (Pre-1980)): active; positive
mutagenic call [5]: active; positive

O=S1(=O)OC2(c3ccccc31)c1cc(Br)c(O)c(Br)c1Oc1c2cc(Br)c(O)c1Br
mutagenic call [5]: active; positive

CC1CN(N=O)CCN1N=O (stereo not drawn)
mutagenic call [9]: active; positive

C=C1C/C(=C/C)C(=O)O[C@@H]2CCN3CC=C(COC(=O)[C@]1(C)O)[C@H]23
mutagenic call [4]: active; positive

CCN(CC)c1ccc2cc3ccc(=[N+](CC)CC)cc-3oc2c1
mutagenic call [10]: active; positive

COc1cc([C@@H]2c3cc4c(cc3[C@H](O)[C@H]3COC(=O)[C@H]23)OCO4)cc(OC)c1OC
mutagenic call (Species/Cell Type: Chinese hamster ovary (CHO) cells, Assay Type: Forward gene mutation at the HPRT locus, Assay Code: CHOT, Evaluation Type: Evaluation B (Post-1980)): no conclusion

Nc1ccc(N)cc1
mutagenic call [11]: active; positive
mutagenic call [10]: active; positive
mutagenic call [12]: active; positive
mutagenic call [13]: no conclusion
mutagenic call [14]: inactive; negative
mutagenic call [15]: inactive; negative
call (Species/Cell Type: Nonhuman, Assay Code: CCG-, Evaluation Type: Evaluation A (Pre-1980)): inactive; negative
mutagenic call (Species/Cell Type: Rodents, Sex: Male, Assay Type: Dominant lethal test, Assay Code: DLT-, Evaluation Type: Evaluation A (Pre-1980)): inactive; negative
mutagenic call (Species/Cell Type: Syrian hamster embryo (SA7/SHE) cells, Assay Type: Cell transformation, viral enhanced, Assay Code: CT7+, Evaluation Type: Evaluation A (Pre-1980)): active; positive

COc1cc(C=O)ccc1O
mutagenic call [1]: active; positive
mutagenic call [2]: active; positive

[Cr]
call (Species/Cell Type: Nonhuman, Assay Code: CCGT, Evaluation Type: Evaluation A (Pre-1980)): no conclusion

CC1CN(N=O)CC(C)O1 (stereo not drawn)
mutagenic call [9]: active; positive

O=S(=O)(O)c1ccc2c(N=Nc3ccccc3)c(O)ccc2c1
mutagenic call [7]: inactive; negative

c1cc2ccc3ccc(C4CO4)c4ccc(c1)c2c34 (stereo not drawn)
mutagenic call [5]: active; positive

CCCCCc1cc(O)c2c(c1)OC(C)(C)[C@@H]1CC=C(C)C[C@@H]21
mutagenic call (Species/Cell Type: Fischer rat embryo (RLV/1706) cells, Assay Type: Cell transformation, viral enhanced, Assay Code: CTR-, Evaluation Type: Evaluation A (Pre-1980)): inactive; negative
mutagenic call (Species/Cell Type: Human lymphocytes, Assay Type: Micronucleus test in vitro, chromosome aberrations, Assay Code: MN7+, Evaluation Type: Evaluation A (Pre-1980)): active; positive

CC(=O)Nc1cc2c(cc1O)-c1ccccc1C2
mutagenic call [8]: no conclusion
mutagenic call [16]: inactive; negative
mutagenic call (Species/Cell Type: Escherichia coli polA (W3119 vs P3478), Assay Type: Rec-assay, DNA effects (bacterial DNA repair), Assay Code: RE1T, Evaluation Type: Evaluation A (Pre-1980)): no conclusion
mutagenic call [17]: inactive; negative
mutagenic call [18]: inactive; negative
mutagenic call [19]: inactive; negative

OC1CCCCC1
mutagenic call [3]: inactive; negative

Nc1ncn[nH]1
mutagenic call [11]: active; positive
mutagenic call (Species/Cell Type: Drosophila melanogaster, Assay Type: Aneuploidy, sex chromosome gain, chromosome aberrations, Assay Code: DAG-F, Evaluation Type: Evaluation A (Pre-1980)): inactive; negative
mutagenic call (Species/Cell Type: Drosophila melanogaster, Assay Type: Aneuploidy, whole sex chromosome loss, chromosome aberrations, Assay Code: DAC-F, Evaluation Type: Evaluation A (Pre-1980)): inactive; negative
mutagenic call [8]: no conclusion
mutagenic call [16]: inactive; negative
mutagenic call (Species/Cell Type: Escherichia coli polA (W3119 vs P3478), Assay Type: Rec-assay, DNA effects (bacterial DNA repair), Assay Code: RE1-, Evaluation Type: Evaluation A (Pre-1980)): inactive; negative
mutagenic call [12]: active; positive
mutagenic call (Species/Cell Type: Hordeum vulgare (barley), Assay Type: Chromosome aberrations, Assay Code: HOC+, Evaluation Type: Evaluation A (Pre-1980)): active; positive
mutagenic call [17]: inactive; negative
mutagenic call [13]: no conclusion
mutagenic call [14]: inactive; negative
mutagenic call [15]: inactive; negative
call (Species/Cell Type: Nonhuman, Assay Code: CCG+, Evaluation Type: Evaluation A (Pre-1980)): active; positive
mutagenic call (Species/Cell Type: Nonhuman, Assay Type: Sister-chromatid exchange (SCE) in vitro, Assay Code: SC2+D*, Activation: With metabolic activation, Dose Response: With dose response, Evaluation Type: Evaluation B (Post-1980)): active; positive
mutagenic call [18]: inactive; negative
mutagenic call [19]: inactive; negative
mutagenic call (Species/Cell Type: Salmonella typhimurium, Assay Type: Forward and reverse gene mutation, host-mediated assay, Assay Code: HMA+, Evaluation Type: Evaluation A (Pre-1980)): active; positive
mutagenic call (Species/Cell Type: Syrian hamster embryo (SHE) cells, Assay Type: Cell transformation, clonal assay, Assay Code: CTC+, Evaluation Type: Evaluation A (Pre-1980)): active; positive
mutagenic call (Species/Cell Type: Vicia faba, Assay Type: Chromosome aberrations, Assay Code: VIC+, Evaluation Type: Evaluation A (Pre-1980)): active; positive

CCCN(CCCC(=O)O)N=O
mutagenic call [5]: active; positive
